Assay results: PubChem BioAssay AID330 (DTP/NCI, 2004)
Where “and” joins values, the source holds several entries; their conditions need not be identical. Equal values may be shown once. Toxic doses and inconclusive results are not listed. How the source made its calls: active means survival T/C of 150% or more; inactive means T/C below 125% in these data.

Tested on: P388 leukemia ip, CD2F1 mice, survival T/C
Test: NCI In Vivo Anticancer Drug Screen. Data for tumor model P388 Leukemia (intraperitoneal) in CD2F1 (CDF1) mice
Details: endpoint: median survival time, higher = longer survival
Outline: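 Mice carrying the transplanted tumor received test compound or vehicle. Survival was recorded in each group, and the value is the treated-group measurement divided by that of the vehicle-treated control group.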

[1] = dose: 60.0 mg/kg/injection, schedule: Q01DX005 (ip), vehicle: saline with Tween-80
[2] = dose: 120.0 mg/kg/injection, schedule: Q01DX005 (ip), vehicle: saline with Tween-80
[3] = dose: 240.0 mg/kg/injection, schedule: Q01DX005 (ip), vehicle: saline with Tween-80
[4] = dose: 6.25 mg/kg/injection, schedule: Q01DX009 (ip), vehicle: saline with Tween-80
[5] = dose: 200.0 mg/kg/injection, schedule: Q04DX003 (ip), vehicle: saline with Tween-80
[6] = dose: 400.0 mg/kg/injection, schedule: Q04DX003 (ip), vehicle: saline with Tween-80
[7] = dose: 100.0 mg/kg/injection, schedule: Q01DX009 (ip), vehicle: saline with Tween-80
[8] = dose: 200.0 mg/kg/injection, schedule: Q01DX009 (ip), vehicle: saline with Tween-80
[9] = dose: 12.5 mg/kg/injection, schedule: Q01DX005 (ip), vehicle: Klucel (hydroxypropylcellulose) (HPC)
[10] = dose: 25.0 mg/kg/injection, schedule: Q01DX005 (ip), vehicle: Klucel (hydroxypropylcellulose) (HPC)
[11] = dose: 50.0 mg/kg/injection, schedule: Q01DX005 (ip), vehicle: Klucel (hydroxypropylcellulose) (HPC)
[12] = dose: 100.0 mg/kg/injection, schedule: Q01DX005 (ip), vehicle: Klucel (hydroxypropylcellulose) (HPC)
[13] = dose: 12.5 mg/kg/injection, schedule: Q01DX009 (ip), vehicle: saline with Tween-80
[14] = dose: 25.0 mg/kg/injection, schedule: Q01DX009 (ip), vehicle: saline with Tween-80
[15] = dose: 200.0 mg/kg/injection, schedule: Q01DX005 (ip), vehicle: Klucel (hydroxypropylcellulose) (HPC)

Measured: T/C

Cc1ccc(S(=O)(=O)C(C)(C)C(O)c2ccccc2)cc1 (stereo not drawn)
inactive: dose: 50.0 mg/kg/injection, schedule: Q01DX005 (ip), vehicle: saline with Tween-80 100 % of control | dose: 100.0 mg/kg/injection, schedule: Q01DX005 (ip), vehicle: saline with Tween-80 99 % of control | dose: 200.0 mg/kg/injection, schedule: Q01DX005 (ip), vehicle: saline with Tween-80 92 % of control

CCN(CC)C(=O)N(O)C1CCCCC1
inactive: [1] 105 % of control | [2] 97 % of control | [3] 103 % of control

O=C1c2ccccc2C(=O)N1CC[P+](C1CCCCC1)(C1CCCCC1)C1CCCCC1
inactive: dose: 0.78 mg/kg/injection, schedule: Q01DX009 (ip), vehicle: saline with Tween-80 110 % of control | dose: 1.56 mg/kg/injection, schedule: Q01DX009 (ip), vehicle: saline with Tween-80 112 % of control | dose: 3.13 mg/kg/injection, schedule: Q01DX009 (ip), vehicle: water 97 % of control | [4] 116 % of control | dose: 6.25 mg/kg/injection, schedule: Q01DX009 (ip), vehicle: water 118 % of control | dose: 12.5 mg/kg/injection, schedule: Q01DX009 (ip), vehicle: water 118 % of control | dose: 25.0 mg/kg/injection, schedule: Q01DX009 (ip), vehicle: water 118 % of control | dose: 50.0 mg/kg/injection, schedule: Q01DX009 (ip), vehicle: water 86 % of control

CN1CC(NC(=O)N(CCCl)N=O)CC2c3cccc4c3c(cn4N=O)CC21 (stereo not drawn)
active: dose: 50.0 mg/kg/injection, schedule: Q01DX001 (ip), vehicle: Klucel (hydroxypropylcellulose) (HPC) 166 % of control | dose: 100.0 mg/kg/injection, schedule: Q01DX001 (ip), vehicle: Klucel (hydroxypropylcellulose) (HPC) 166 % of control and 201 % of control | dose: 200.0 mg/kg/injection, schedule: Q01DX001 (ip), vehicle: Klucel (hydroxypropylcellulose) (HPC) 166 % of control

CC(=O)Nc1cccc(OCc2cccc(N3C(N)=NC(N)=NC3(C)C)c2)c1
inactive: dose: 1.56 mg/kg/injection, schedule: Q01DX009 (ip), vehicle: distilled water + Tween-80 99 % of control | dose: 3.12 mg/kg/injection, schedule: Q01DX009 (ip), vehicle: distilled water + Tween-80 99 % of control | dose: 6.25 mg/kg/injection, schedule: Q01DX009 (ip), vehicle: distilled water + Tween-80 105 % of control | dose: 6.25 mg/kg/injection, schedule: Q01DX009 (ip), vehicle: saline 105 % of control | dose: 12.5 mg/kg/injection, schedule: Q01DX009 (ip), vehicle: distilled water + Tween-80 105 % of control | dose: 12.5 mg/kg/injection, schedule: Q01DX009 (ip), vehicle: saline 101 % of control | dose: 25.0 mg/kg/injection, schedule: Q01DX009 (ip), vehicle: saline 117 % of control

CCN(CCCNc1cc(OC)cc2cccnc12)C(C)C
inactive: dose: 3.12 mg/kg/injection, schedule: Q01DX005 (ip), vehicle: saline 98 % of control | dose: 6.25 mg/kg/injection, schedule: Q01DX005 (ip), vehicle: saline 92 % of control | dose: 12.5 mg/kg/injection, schedule: Q01DX005 (ip), vehicle: saline 107 % of control

Cc1ccc(NC(=O)C(c2ccccc2)c2ccccc2)cc1
inactive: dose: 100.0 mg/kg/injection, schedule: Q04DX003 (ip), vehicle: saline with Tween-80 98 % of control | [5] 97 % of control | [6] 92 % of control

COC(=O)C(Cc1ccccc1C(N)=O)(OC)OC
inactive: dose: 50.0 mg/kg/injection, schedule: Q01DX005 (ip), vehicle: saline 98 % of control | dose: 100.0 mg/kg/injection, schedule: Q01DX005 (ip), vehicle: saline 99 % of control | dose: 200.0 mg/kg/injection, schedule: Q01DX005 (ip), vehicle: saline 98 % of control

O=C(Nc1ccc(Cl)cc1)Nc1nnc(-c2cccc(Cl)c2)o1
inactive: dose: 7.5 mg/kg/injection, schedule: Q01DX005 (ip), vehicle: saline with Tween-80 95 % of control | dose: 15.0 mg/kg/injection, schedule: Q01DX005 (ip), vehicle: saline with Tween-80 90 % of control and 93 % of control | [1] 89 % of control | [3] 91 % of control

O=C(CCCC(=O)Nc1cccc2[nH]c3ccccc3c(=O)c12)Nc1cccc2[nH]c3ccccc3c(=O)c12
inactive: [1] 100 % of control | [2] 88 % of control | [3] 100 % of control

CC(=O)[C@H]1CC[C@H]2[C@@H]3C[C@H](C)C4=CC(=O)CC[C@]4(C)[C@H]3C(=O)C[C@]12C
inactive: [7] 100 % of control | [8] 109 % of control | dose: 400.0 mg/kg/injection, schedule: Q01DX009 (ip), vehicle: saline with Tween-80 104 % of control

CC12Oc3ccc(Cl)cc3C1(C)c1cc(Cl)ccc1O2 (stereo not drawn)
inactive: dose: 50.0 mg/kg/injection, schedule: Q01DX009 (ip), vehicle: acetone 104 % of control | dose: 100.0 mg/kg/injection, schedule: Q01DX009 (ip), vehicle: acetone 102 % of control | dose: 200.0 mg/kg/injection, schedule: Q01DX009 (ip), vehicle: acetone 102 % of control

O=C(C[n+]1cc2ccccc2c2ccccc21)c1ccc(-c2ccccc2)cc1
inactive: dose: 6.25 mg/kg/injection, schedule: Q01DX005 (ip), vehicle: Klucel (hydroxypropylcellulose) (HPC) 104 % of control | [9] 104 % of control | [10] 110 % of control | [11] 105 % of control | [12] 109 % of control

O=P(Oc1ccc(OP(=O)(N2CC2)N2CC2)cc1)(N1CC1)N1CC1
active: [7] 154 % of control | [8] 181 % of control | [5] 154 % of control | dose: 264.0 mg/kg/injection, schedule: Q04DX003 (ip), vehicle: saline with Tween-80 166 % of control | [6] 166 % of control

C=CC1(C)CCOC(=O)C1 (stereo not drawn)
inactive: [1] 94 % of control | [2] 97 % of control

O=C1c2ccccc2CCC1[n+]1ccc2ccccc2c1 (stereo not drawn)
inactive: [9] 102 % of control | [10] 104 % of control | [11] 106 % of control and 111 % of control

CCCCNC(=S)N/N=C1/CC(=O)N(c2ccccc2)C1c1ccccc1 (stereo not drawn)
inactive: [1] 89 % of control | [2] 89 % of control

CN(Cc1cnc2nc(N)nc(N)c2c1)c1ccc(C(=O)NC(CCC(=O)O)C(=O)O)cc1 (stereo not drawn)
inactive: dose: 0.25 mg/kg/injection, schedule: Q01DX005 (ip), vehicle: other 123 % of control
active: dose: 1.0 mg/kg/injection, schedule: Q01DX005 (ip), vehicle: other 154 % of control | dose: 2.0 mg/kg/injection, schedule: Q01DX005 (ip), vehicle: other 150 % of control and 170 % of control | dose: 4.0 mg/kg/injection, schedule: Q01DX005 (ip), vehicle: other 166 % of control and 186 % of control and 197 % of control | dose: 6.0 mg/kg/injection, schedule: Q01DX005 (ip), vehicle: other 197 % of control

O=C(NCCN(C(=O)C12CC3CC(CC(C3)C1)C2)c1ccc(F)cc1)C12CC3CC(CC(C3)C1)C2
inactive: [4] 105 % of control | [13] 92 % of control | [14] 100 % of control

Cc1cc(NC(=S)SCc2ccc(Cl)cc2)ccc1Br
inactive: [13] 124 % of control | [14] 119 % of control | dose: 50.0 mg/kg/injection, schedule: Q01DX009 (ip), vehicle: Klucel (hydroxypropylcellulose) (HPC) 114 % of control and 124 % of control | dose: 50.0 mg/kg/injection, schedule: Q01DX009 (ip), vehicle: saline with Tween-80 124 % of control | dose: 50.0 mg/kg/injection, schedule: Q01DX009 (ip), vehicle: suspension in saline 108 % of control | dose: 100.0 mg/kg/injection, schedule: Q01DX009 (ip), vehicle: Klucel (hydroxypropylcellulose) (HPC) 118 % of control and 120 % of control | dose: 100.0 mg/kg/injection, schedule: Q01DX009 (ip), vehicle: suspension in saline 101 % of control | dose: 200.0 mg/kg/injection, schedule: Q01DX009 (ip), vehicle: Klucel (hydroxypropylcellulose) (HPC) 123 % of control | dose: 200.0 mg/kg/injection, schedule: Q01DX009 (ip), vehicle: suspension in saline 113 % of control

O=C(NC(Cc1ccc(I)cc1)C(=O)O)c1cccc(Cl)c1 (stereo not drawn)
inactive: [11] 99 % of control | [12] 108 % of control | [15] 108 % of control

CCn1cnc(-c2ccccc2)c1-c1ccccc1
inactive: dose: 25.0 mg/kg/injection, schedule: Q04DX003 (ip), vehicle: saline with Tween-80 109 % of control | dose: 50.0 mg/kg/injection, schedule: Q04DX003 (ip), vehicle: saline with Tween-80 100 % of control

Cc1cc([O-])c([I+]c2ccccc2)c(=O)[nH]1
inactive: [11] 103 % of control | [12] 110 % of control | [15] 102 % of control
